Data as given in ChEMBL document CHEMBL1201862, “PubChem BioAssay data set” (2004).
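How tested: cells in 96-well plates exposed to compound for 48 hours at five concentrations. GI50 = concentration required for 50% inhibition of growth.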 Calls of active or inactive are those of the source. Rule as the data show it: active = GI50 up to about 1.1 µM and inactive = higher.

How the values were obtained:
Assay in all cases: inhibition of tumour cell growth, NCI panel, 48 h
SW-620 = tested on: SW-620
KM12 = tested on: KM12
OVCAR-5 = tested on: OVCAR-5
SF-295 = tested on: SF-295
SNB-75 = tested on: SNB-75
SK-MEL-5 = tested on: SK-MEL-5
MOLT-4 = tested on: MOLT-4
NCI-H460 = tested on: NCI-H460
OVCAR-3 = tested on: OVCAR-3
NCI-H522 = tested on: NCI-H522
RXF 393 = tested on: RXF 393
HOP-62 = tested on: HOP-62
NCI-H23 = tested on: NCI-H23
TK-10 = tested on: TK-10
OVCAR-4 = tested on: OVCAR-4
NCI-H226 = tested on: NCI-H226
UACC-257 = tested on: UACC-257
EKVX = tested on: EKVX

Measured: GI50

c1ccc2[nH]c(CNc3ccc(C4C[Se]N=N4)cc3)nc2c1 (stereo unspecified)
inactive: SW-620 95.7 µM | KM12 26.4 µM | OVCAR-5 > 100 µM | SF-295 28.4 µM | SNB-75 43.2 µM | SK-MEL-5 15.1 µM | MOLT-4 9.02 µM | NCI-H460 41.2 µM | OVCAR-3 21.7 µM | NCI-H522 29 µM | RXF 393 > 100 µM | HOP-62 > 100 µM | NCI-H23 30.3 µM | TK-10 > 100 µM | OVCAR-4 27.5 µM

CCOc1ccc(NC(=O)CC2Sc3ccccc3NC2=O)cc1 (stereo unspecified)
inactive: NCI-H226 > 100 µM | SW-620 14.5 µM | KM12 28.3 µM | OVCAR-5 > 100 µM | SF-295 > 100 µM | SNB-75 31.6 µM | SK-MEL-5 > 100 µM | UACC-257 > 100 µM | MOLT-4 > 100 µM | NCI-H460 90.2 µM | OVCAR-3 42.3 µM | NCI-H522 > 100 µM | HOP-62 44.9 µM | NCI-H23 > 100 µM | TK-10 60.5 µM | OVCAR-4 18.4 µM | EKVX > 100 µM

COC(=O)N/N=C(\C)CC(=O)Nc1ccc(Cl)cc1
inactive: NCI-H226 > 100 µM | SW-620 > 100 µM | KM12 > 100 µM | OVCAR-5 > 100 µM | SF-295 > 100 µM | SNB-75 98.6 µM | SK-MEL-5 > 100 µM | UACC-257 > 100 µM | MOLT-4 > 100 µM | NCI-H460 > 100 µM | OVCAR-3 > 100 µM | NCI-H522 58.5 µM | RXF 393 42.6 µM | HOP-62 > 100 µM | NCI-H23 > 100 µM | TK-10 > 100 µM | EKVX 46.7 µM

CN(C)C(=Nc1nc(N(C)C)s[s+]1)N(C)C
inactive: NCI-H226 72.8 µM | SW-620 > 100 µM | KM12 > 100 µM | OVCAR-5 > 100 µM | SF-295 > 100 µM | SNB-75 > 100 µM | SK-MEL-5 > 100 µM | UACC-257 > 100 µM | MOLT-4 > 100 µM | NCI-H460 > 100 µM | NCI-H522 > 100 µM | RXF 393 > 100 µM | HOP-62 > 100 µM | NCI-H23 > 100 µM | TK-10 > 100 µM | OVCAR-4 > 100 µM | EKVX > 100 µM

O=C1C=C(Nc2ccccc2C(=O)CC(=O)C(=O)Nc2cccc([N+](=O)[O-])c2)c2ccccc2C1=O
inactive: NCI-H226 59.3 µM | SW-620 25.6 µM | KM12 36.7 µM | OVCAR-5 > 100 µM | SNB-75 64.7 µM | SK-MEL-5 12.9 µM | UACC-257 27.2 µM | MOLT-4 4.28 µM | NCI-H460 93.3 µM | OVCAR-3 14.2 µM | NCI-H522 21.8 µM | RXF 393 46.3 µM | HOP-62 > 100 µM | NCI-H23 26.9 µM | TK-10 > 100 µM | OVCAR-4 26.9 µM | EKVX > 100 µM

O=c1[nH]ccc2c1ccn2C1CC(O)C(CO)O1 (stereo unspecified)
inactive: NCI-H226 > 100 µM | SW-620 > 100 µM | KM12 > 100 µM | OVCAR-5 > 100 µM | SF-295 > 100 µM | SNB-75 46.5 µM | SK-MEL-5 > 100 µM | UACC-257 > 100 µM | MOLT-4 > 100 µM | NCI-H460 > 100 µM | OVCAR-3 > 100 µM | NCI-H522 > 100 µM | HOP-62 > 100 µM | NCI-H23 > 100 µM | TK-10 > 100 µM | OVCAR-4 > 100 µM | EKVX > 100 µM

N#CC1=C(c2ccccc2)NN(Cc2ccccc2)C(c2ccc(Cl)cc2)CC1=O (stereo unspecified)
inactive: NCI-H226 57.8 µM | SW-620 20.2 µM | KM12 25.8 µM | OVCAR-5 34 µM | SF-295 27.5 µM | SNB-75 18.3 µM | SK-MEL-5 15.6 µM | UACC-257 37.8 µM | MOLT-4 4.91 µM | NCI-H460 18 µM | NCI-H522 12.7 µM | RXF 393 22.3 µM | NCI-H23 20.1 µM | TK-10 42.8 µM | OVCAR-4 20.9 µM

COC(=O)/C(=C/CC(N=C(c1ccccc1)c1ccccc1)C(=O)OC)N=C(c1ccccc1)c1ccccc1 (stereo unspecified)
inactive: SW-620 > 100 µM | KM12 > 100 µM | SF-295 > 100 µM | SNB-75 12.4 µM | SK-MEL-5 > 100 µM | UACC-257 > 100 µM | MOLT-4 > 100 µM | NCI-H460 > 100 µM | OVCAR-3 > 100 µM | NCI-H522 38.5 µM | RXF 393 26.1 µM | HOP-62 > 100 µM | NCI-H23 > 100 µM | TK-10 > 100 µM | OVCAR-4 > 100 µM | EKVX > 100 µM

COc1ccc(/C(=N/NC(N)=O)C(c2ccc(OC)cc2)C2C(=O)Oc3ccccc32)cc1 (stereo unspecified)
inactive: NCI-H226 > 100 µM | SW-620 > 100 µM | KM12 > 100 µM | OVCAR-5 > 100 µM | SF-295 > 100 µM | SNB-75 > 100 µM | SK-MEL-5 > 100 µM | UACC-257 > 100 µM | MOLT-4 > 100 µM | NCI-H460 > 100 µM | OVCAR-3 > 100 µM | NCI-H522 > 100 µM | RXF 393 86.1 µM | HOP-62 > 100 µM | NCI-H23 > 100 µM | OVCAR-4 > 100 µM

CSc1nc(NC2OC(COC(C)=O)C(OC(C)=O)C(OC(C)=O)C2OC(C)=O)c2c(n1)OCC2=O (stereo unspecified)
inactive: NCI-H226 > 100 µM | SW-620 > 100 µM | KM12 > 100 µM | OVCAR-5 > 100 µM | SF-295 > 100 µM | SNB-75 > 100 µM | SK-MEL-5 > 100 µM | UACC-257 > 100 µM | MOLT-4 > 100 µM | NCI-H460 > 100 µM | OVCAR-3 > 100 µM | NCI-H522 > 100 µM | HOP-62 > 100 µM | NCI-H23 > 100 µM | TK-10 > 100 µM | OVCAR-4 > 100 µM

OC1(C23CC4CC(CC(C4)C2)C3)CSCC1(O)C12CC3CC(CC(C3)C1)C2 (stereo unspecified)
inactive: NCI-H226 > 100 µM | SW-620 > 100 µM | KM12 > 100 µM | SF-295 > 100 µM | SNB-75 > 100 µM | SK-MEL-5 > 100 µM | UACC-257 > 100 µM | MOLT-4 > 10 µM | OVCAR-3 > 100 µM | NCI-H522 > 100 µM | HOP-62 > 100 µM | NCI-H23 > 100 µM | TK-10 > 100 µM | OVCAR-4 > 100 µM | EKVX > 100 µM

O=C(O)CC[C@H](NC(=O)c1ccc(-n2nc3ccc(=O)cc-3[nH]c2=O)cc1)C(=O)O
inactive: SW-620 > 100 µM | KM12 > 100 µM | OVCAR-5 > 100 µM | SF-295 > 100 µM | SK-MEL-5 > 100 µM | UACC-257 > 100 µM | MOLT-4 > 100 µM | NCI-H460 > 100 µM | OVCAR-3 > 100 µM | NCI-H522 > 100 µM | RXF 393 > 100 µM | HOP-62 > 100 µM | NCI-H23 > 100 µM | TK-10 > 100 µM | OVCAR-4 > 100 µM | EKVX > 100 µM

Cc1nc(C(N)=S)sc1C(=O)/C=C/c1cccc(O)c1
inactive: NCI-H226 > 100 µM | SW-620 82.8 µM | KM12 32.4 µM | OVCAR-5 > 100 µM | SF-295 > 100 µM | SNB-75 59.6 µM | SK-MEL-5 > 100 µM | UACC-257 > 100 µM | MOLT-4 21.9 µM | NCI-H460 > 100 µM | OVCAR-3 > 100 µM | NCI-H522 90.4 µM | RXF 393 > 100 µM | HOP-62 > 100 µM | NCI-H23 > 100 µM | TK-10 > 100 µM | EKVX > 100 µM

Cn1nc2ccccc2cc1=O
inactive: NCI-H226 > 100 µM | SW-620 > 100 µM | KM12 > 100 µM | OVCAR-5 > 100 µM | SF-295 > 100 µM | SNB-75 59.2 µM | SK-MEL-5 > 100 µM | UACC-257 > 100 µM | NCI-H460 > 100 µM | OVCAR-3 > 100 µM | HOP-62 > 100 µM | NCI-H23 > 100 µM | TK-10 > 100 µM | OVCAR-4 > 100 µM | EKVX > 100 µM

CCOC(=O)c1cc(/C=C/C(C)=C/C(=O)OC)oc1-c1ccccc1
inactive: NCI-H226 > 100 µM | SW-620 > 100 µM | KM12 48.4 µM | OVCAR-5 > 100 µM | SF-295 50.8 µM | SK-MEL-5 > 100 µM | UACC-257 61.8 µM | MOLT-4 38.6 µM | NCI-H460 65.3 µM | OVCAR-3 73.5 µM | NCI-H522 39.7 µM | NCI-H23 61.8 µM | TK-10 > 100 µM | OVCAR-4 63.5 µM | EKVX > 100 µM

CCn1c2ccccc2c(=O)c2c(OC)ccc(OC)c21
inactive: NCI-H226 32.2 µM | SW-620 32.8 µM | KM12 79.6 µM | OVCAR-5 > 61.7 µM | SF-295 53.8 µM | UACC-257 41.4 µM | MOLT-4 42.5 µM | NCI-H460 47.6 µM | OVCAR-3 34 µM | NCI-H522 20.6 µM | RXF 393 32.5 µM | HOP-62 54.3 µM | NCI-H23 > 83.8 µM | OVCAR-4 31.3 µM | EKVX > 66.5 µM

CC1OC(n2cc(F)c(=O)[nH]c2=O)CCC1=O (stereo unspecified)
inactive: NCI-H226 > 100 µM | SW-620 > 100 µM | KM12 92.9 µM | OVCAR-5 > 100 µM | SF-295 > 100 µM | SNB-75 > 100 µM | SK-MEL-5 > 100 µM | UACC-257 > 100 µM | MOLT-4 > 100 µM | NCI-H460 32.2 µM | NCI-H522 > 100 µM | RXF 393 > 100 µM | HOP-62 50.8 µM | TK-10 > 100 µM | OVCAR-4 > 100 µM
